# Measured values as given in patent US11937601B2, “Method for treatment of soybean rust” (Globachem NV, priority 2020, dated 2024).
# Tests used:
# [1] = tested on: P. pachyrhizi; test: Field trial, soybean rust severity and efficacy on naturally infected soybean; assay type: in vivo, Phakopsora pachyrhizi
# Method: (§1) A field trial was conducted to evaluate the effect and efficacy of zoxamide on soybean rust disease on soybean (Glycine max) wherein plants were naturally infected by the disease (P. pachyrhizi). The trial was divided in the following 11 treatments: • TREATMENT 1: One treatment where plants were left untreated and in which natural progression of the disease was observed; • TREATMENT 2: One reference treatment which consisted of chlorothalonil applied in 1.3 kg/ha; • TREATMENT 3: One reference treatment which consisted of treatment with prothioconazole applied in 75 g/ha. • TREATMENT 4: One reference treatment with the mixture of prothioconazole and trifloxystrobin applied in amount of 70 g/ha of prothioconazole and 60 g/ha of trifloxystrobin. • TREATMENT 5: One reference treatment with wherein tebuconazole was applied in amount of 83.3 g/ha; mancozeb in amount of 1000 g/ha and picoxystrobin in amount of 66.6 g/ha. All four reference treatments (TREATMENTS 2-5) are currently available treatments of soybean rust, wherein the mentioned compositions were prepared from commercially available products prepared according to the respective label instructions and sprayed on the plants in amounts mentioned above and in Table 1 and 2. TREATMENTS 6-8: Three treatments wherein zoxamide was applied in different doses of (6) 180 g/ha, (7) 120 g/ha, and (8) 90 g/ha. TREATMENTS 9-11: Three treatments wherein zoxamide was applied together with prothioconazole in the following doses: (9) zoxamide 180 g/ha and prothioconazole 75 g/ha; (10) zoxamide 120 g/ha and prothioconazole 75 g/ha; and (11) zoxamide 90 g/ha and prothioconazole 75 g/ha. Each of the above treatments was applied on a plot of 3 meters by 6 meters in size and was repeated in 4 replicates. Zoxamide compositions used in this trial were prepared from the suspension concentrate containing 240 g/L of zoxamide, diluted with water to predetermined concentration, vegetable oil was added to concentration of 0.25% V/V, and such composition was sprayed on the plants in the predetermined amounts. First application of respective treatments was made when soybean plant reached BBCH growth stages around 60 to 75. Growth stages were defined according to Compendium of Growth Stage Identification Keys for Mono- and Dicotyledonous Plants, Extended BBCH scale, 2nd Edition 1997, ISBN 3-9520749-3-4. For each treatment, two applications of the respective treatment were made with 14 days interval between. Disease spread and defoliation were evaluated by visual estimation of degree of infection on leaves and defoliation. In Table 1 and Table 2, the following terms have the following meaning: % S—severity; % E—efficacy; 0.0%—disease progressed to maximum; 100.0%—no disease symptoms observed.
# [2] = tested on: P. pachyrhizi; test: Field trial, defoliation percent of soybean naturally infected by soybean rust; assay type: in vivo, Phakopsora pachyrhizi
# Method: as §1
# [3] = 7 days after first application, chlorothalonil 1296 g/ha
# [4] = 7 days after second application, chlorothalonil 1296 g/ha
# [5] = 14 days after first application, chlorothalonil 1296 g/ha
# [6] = 14 days after second application, chlorothalonil 1296 g/ha
# [7] = 21 days after second application, chlorothalonil 1296 g/ha
# [8] = 28 days after second application, chlorothalonil 1296 g/ha
# [9] = 7 days after first application, prothioconazole 75 g/ha
# [10] = 7 days after second application, prothioconazole 75 g/ha
# [11] = 14 days after first application, prothioconazole 75 g/ha
# [12] = 14 days after second application, prothioconazole 75 g/ha
# [13] = 21 days after second application, prothioconazole 75 g/ha
# [14] = 28 days after second application, prothioconazole 75 g/ha
# [15] = 7 days after first application, zoxamide 90 g/ha
# [16] = 7 days after first application, zoxamide 120 g/ha
# [17] = 7 days after first application, zoxamide 180 g/ha
# [18] = 7 days after second application, zoxamide 90 g/ha
# [19] = 7 days after second application, zoxamide 120 g/ha
# [20] = 7 days after second application, zoxamide 180 g/ha
# [21] = 14 days after first application, zoxamide 90 g/ha
# [22] = 14 days after first application, zoxamide 120 g/ha
# [23] = 14 days after first application, zoxamide 180 g/ha
# [24] = 14 days after second application, zoxamide 90 g/ha
# [25] = 14 days after second application, zoxamide 120 g/ha
# [26] = 14 days after second application, zoxamide 180 g/ha
# [27] = 21 days after second application, zoxamide 90 g/ha
# [28] = 21 days after second application, zoxamide 120 g/ha
# [29] = 21 days after second application, zoxamide 180 g/ha
# [30] = 28 days after second application, zoxamide 90 g/ha
# [31] = 28 days after second application, zoxamide 120 g/ha
# [32] = 28 days after second application, zoxamide 180 g/ha
structure (smiles),measurement,setting,value
"N#Cc1c(Cl)c(Cl)c(Cl)c(C#N)c1Cl [CHLOROTHALONIL, chlorothalonil]",% E (efficacy),[1]; [3],100.00%
same,% S (severity),[1]; [3],0.00%
same,% E (efficacy),[1]; [4],76.47%
same,% S (severity),[1]; [4],5.00%
same,% E (efficacy),[1]; [5],66.67%
same,% S (severity),[1]; [5],5.00%
same,% E (efficacy),[1]; [6],76.47%
same,% S (severity),[1]; [6],5.00%
same,% E (efficacy),[1]; [7],68.11%
same,% S (severity),[1]; [7],14.75%
same,Defoliation %,[2]; [7],50.00%
same,Efficacy % (defoliation),[2]; [7],38.46%
same,Defoliation %,[2]; [8],60.00%
same,Efficacy % (defoliation),[2]; [8],40.00%
"OC(Cc1ccccc1Cl)(Cn1nc[nH]c1=S)C1(Cl)CC1 (stereo not shown) [PROTHIOCONAZOLE, prothioconazole]",% E (efficacy),[1]; [9],100.00%
same,% S (severity),[1]; [9],0.00%
same,% E (efficacy),[1]; [10],85.88%
same,% S (severity),[1]; [10],3.00%
same,% E (efficacy),[1]; [11],100.00%
same,% S (severity),[1]; [11],0.00%
same,% E (efficacy),[1]; [12],85.88%
same,% S (severity),[1]; [12],3.00%
same,% E (efficacy),[1]; [13],62.16%
same,% S (severity),[1]; [13],17.50%
same,Defoliation %,[2]; [13],50.00%
same,Efficacy % (defoliation),[2]; [13],38.46%
same,Defoliation %,[2]; [14],70.00%
same,Efficacy % (defoliation),[2]; [14],30.00%
"CCC(C)(NC(=O)c1cc(Cl)c(C)c(Cl)c1)C(=O)CCl (stereo not shown) [ZOXAMIDE, 3,5-dichloro-N-(3-chloro-1-ethyl-1-methyl-2-oxopropyl)-4-methyl benzamide]",% E (efficacy),[1]; [15],100.00%
same,% S (severity),[1]; [15],0.00%
same,% E (efficacy),[1]; [16],100.00%
same,% S (severity),[1]; [16],0.00%
same,% E (efficacy),[1]; [17],100.00%
same,% S (severity),[1]; [17],0.00%
same,% E (efficacy),[1]; [18],85.88%
same,% S (severity),[1]; [18],3.00%
same,% E (efficacy),[1]; [19],100.00%
same,% S (severity),[1]; [19],0.00%
same,% E (efficacy),[1]; [20],100.00%
same,% S (severity),[1]; [20],0.00%
same,% E (efficacy),[1]; [21],100.00%
same,% S (severity),[1]; [21],0.00%
same,% E (efficacy),[1]; [22],100.00%
same,% S (severity),[1]; [22],0.00%
same,% E (efficacy),[1]; [23],100.00%
same,% S (severity),[1]; [23],0.00%
same,% E (efficacy),[1]; [24],76.47%
same,% S (severity),[1]; [24],5.00%
same,% E (efficacy),[1]; [25],85.88%
same,% S (severity),[1]; [25],3.00%
same,% E (efficacy),[1]; [26],100.00%
same,% S (severity),[1]; [26],0.00%
same,% E (efficacy),[1]; [27],70.27%
same,% S (severity),[1]; [27],13.75%
same,% E (efficacy),[1]; [28],81.08%
same,% S (severity),[1]; [28],8.75%
same,% E (efficacy),[1]; [29],90.27%
same,% S (severity),[1]; [29],4.50%
same,Defoliation %,[2]; [27],52.50%
same,Efficacy % (defoliation),[2]; [27],35.38%
same,Defoliation %,[2]; [28],48.75%
same,Efficacy % (defoliation),[2]; [28],40.00%
same,Defoliation %,[2]; [29],42.50%
same,Efficacy % (defoliation),[2]; [29],47.69%
same,Defoliation %,[2]; [30],70.00%
same,Efficacy % (defoliation),[2]; [30],30.00%
same,Defoliation %,[2]; [31],60.00%
same,Efficacy % (defoliation),[2]; [31],40.00%
same,Defoliation %,[2]; [32],51.25%
same,Efficacy % (defoliation),[2]; [32],48.75%
